Columns and labels:
SKOV-3 cells [1] = test: Cell proliferation (MTT) assay; type: cell-based, human; conditions: over time (days 2–4) and at various concentrations
Procedure: The antiproliferative effects of GnRH-mitoxantrone conjugates, Con-3, and Con-7, were evaluated using the SKOV-3 cells. The Con-3 and Con-7 conjugates decreased the proliferation rate of SKOV-3 cells in a dose-dependent manner on days 2, 3, and 4 (Figure 3A–C).
Figure 3 Antiproliferative activity of the GnRH analogs. Decrease in the proliferation rate of the SKOV3 cells after their treatment with increasing concentrations of Con-3, Con-7, Con-P1 or Con-P2 for 2 days (A), 3 days (B) and 4 days (C) at 37 °C. At the end of the incubation, the cells were further incubated with 0.5 mg/mL MTT for 4 h at room temperature and the formed purple formazan crystals were quantified by measuring absorbance at 594 nm. The means ± S.E (triplicate determination) are shown from a representative experiment performed 3 times with similar results. The proliferation rates of cells treated with 1 μΜ of GnRH analogs were used to plot the graph D which depicts the decrease in cell growth over the incubation time (D). Statistical analysis was performed using one-way ANOVA.
At the end of the incubation, the cells were further incubated with 0.5 mg/mL MTT for 4 h at room temperature and the formed purple formazan crystals were quantified by measuring absorbance at 594 nm. The means ± S.E (triplicate determination) are shown from a representative experiment performed 3 times with similar results. […] Statistical analysis was performed using one-way ANOVA.
SKOV-3 cells (kindly provided by Prof. Dimitrios Mavroudis, University of Crete) were seeded into 96-well plates at a density of 6000 cells/well, in triplicates, and incubated overnight in Dulbecco’s modified Eagle’s medium/F12 (DMEM/F12) (1:1), containing 3.15 g/L glucose and 10% bovine calf serum (BCS, HyClone), at 37 °C and 5% CO2. At the end of the incubation, the culture medium was replaced with a fresh one containing 3.15 g/L glucose and 2% BCS, with or without increasing concentrations of GnRH analogs or mitoxantrone (0.1 nM–10 µM), and the cells were further incubated at 37 °C and 5% CO2 for 2, 3 and 4 days. Subsequently, (3-(4,5-dimethylthiazol-2-yl)-2,5- diphenyl tetrazolium bromide) (MTT) was added at a final concentration of 0.5 mg/mL, and the mixtures were incubated for 4 h at room temperature in the dark, allowing the viable cells to reduce the MTT to formazan crystals. The supernatants were removed, and the purple formazan crystals were dissolved in isopropanol containing 4% HCl (100 μL/well) by mixing thoroughly for 30 min in the dark, before the quantification of the absorbance at 594 nm using a Dynatech MicroElisa reader (Chantilly, VA, USA). The percentage of the proliferation rate (% proliferation rate) treated with a GnRH analog was determined based on the following equation: % proliferation rate = (absorbance of cells treated with a GnRH analog/absorbance of untreated cells) × 100. The % viability of the untreated cells (control) was defined as 100%. The % viabilities were analyzed by nonlinear regression analysis, using Prism 8.0 (GraphPad Software, Prism 8.0, San Diego, CA, USA).

SKOV-3 cells [2] = test: Annexin V / propidium iodide apoptosis assay by flow cytometry; type: cell-based, human; conditions: 1 μM, 2, 3 and 4 days; flow cytometry
From the text: We next evaluate the abilities of Con-3 and Con-7 at concentrations of 1 μΜ to induce cell death by determining the percentages of live, apoptotic and necrotic cells after treatment of SKOV-3 cells with the GnRH conjugates. As shown in Figure 5 and Figures S1–S3 on day 2, the majority of SKOV-3 cells were viable (Q4 quadrant), treated either with Con-3, Con-7 or mitoxantrone, whereas the percentage of apoptotic cells (late or early apoptotic) (Q1, Q2 quadrants) was only 10.1%, 10.87% and 13.1% after treatment with Con-3, Con-7 or mitoxantrone, respectively. […] Cell viability further decreased on day 4 with a concomitant increase in apoptosis. Specifically, the percentage of apoptotic cells was 53.5%, 59.6% and 54.3% after treatment with Con-3, Con-7 or mitoxantrone (Figure 5 and Figures S7–S9). In all phases, the percentage of the necrotic and late apoptotic cells (Q3 quadrant) was very small.
Figure 5 Determination of viability, apoptosis, or necrosis of SKOV-3 cells after their treatment with 1 μM Con-3, Con-7, or mitoxantrone for 2, 3, and 4 days at 37 °C. At the end of the incubation the cells were further incubated in binding buffer supplied by Biotium, (CF488A Apoptosis Detection kit) and analyzed on a flow cytometer (excitation 488 nm), in the FITC channel (filter 530 nm) for detection of the Annexin V-positive cellsand in the propidium iodide, or PI, channel (filter 616 nm) for detection of the PI-positive cells. The figures are from a representative experiment performed three times with similar results. A higher resolution of the images in Figure 5 is provided in the Supplementary Material (Figures S1–S9). TEXT PRINTED IN THE PICTURE: Con-3: Q3: 4,19 (Day 2); Q2: 7,12 (Day 2); Q4: 85,7 (Day 2); Q1: 2,98 (Day 2); Q3: 5,31 (Day3); Q2: 19,5 (Day3); Q4: 58,0 (Day3); Q1: 17,1 (Day3); Q3: 3,54 (Day4); Q2: 17,1 (Day4); Q4: 43,0 (Day4); Q1: 36,4 (Day4) | Con-7: Q3: 6,31 (Day 2); Q2: 7,74 (Day 2); Q4: 82,8 (Day 2); Q1: 3,13 (Day 2); Q3: 8,11 (Day3); Q2: 19,8 (Day3); Q4: 56,8 (Day3); Q1: 15,3 (Day3); Q3: 3,48 (Day4); Q2: 19,7 (Day4); Q4: 36,9 (Day4); Q1: 39,9 (Day4) | Mitoxantrone: Q3: 6,49 (Day 2); Q2: 9,40 (Day 2); Q4: 80,4 (Day 2); Q1: 3,67 (Day 2); Q3: 7,13 (Day3); Q2: 18,9 (Day3); Q4: 61,0 (Day3); Q1: 13,1 (Day3); Q3: 2,72 (Day4); Q2: 17,3 (Day4); Q4: 43,0 (Decimal sign as read) (Day4); Q1: 37,0 (Day4) DOUBTS OF THE COPYIST ABOUT THIS PICTURE: All quadrant values: the print is very small, and the decimal sign may be a comma or a point in every value / Con-3, Day 2, Q4: 85,7 or 86,7 / Con-3, Day 2, Q1: 2,98 or 2,96 / Con-3, Day3, Q3: 5,31 or 6,31 / Con-3, Day3, Q2: 19,5 or 19,6 / Con-3, Day3, Q4: 58,0 or 56,0 / Con-3, Day4, Q3: 3,54 or 3,64 / Con-3, Day4, Q1: 36,4 or 38,4 / Con-7, Day 2, Q3: 6,31 or 8,31 / Con-7, Day 2, Q4: 82,8 or 82,6 / Con-7, Day 2, Q1: 3,13 or 3,15 / Con-7, Day3, Q3: 8,11 or 6,11 / Con-7, Day3, Q2: 19,8 or 19,6 / Con-7, Day3, Q4: 56,8 or 58,8 / Con-7, Day3, Q1: 15,3 or 15,8 / Con-7, Day4, Q3: 3,48 or 3,46 / Con-7, Day4, Q4: 36,9 or 38,9 / Con-7, Day4, Q1: 39,9 or 38,9 / Mitoxantrone, Day 2, Q3: 6,49 or 8,49 / Mitoxantrone, Day 2, Q2: 9,40 or 8,40 / Mitoxantrone, Day 2, Q4: 80,4 or 60,4 / Mitoxantrone, Day 2, Q1: 3,67 or 3,87 / Mitoxantrone, Day3, Q2: 18,9 or 16,9 / Mitoxantrone, Day3, Q4: 61,0 or 81,0 / Mitoxantrone, Day3, Q1: 13,1 or 15,1 […]
SKOV-3 cells were seeded into 12-well plates at a density of 50,000 cells/well and incubated overnight in DMEM/F12 (1:1) containing 3.15 g/L glucose and 10% BCS, at 37 °C and 5% CO2. At the end of the incubation, the culture medium was replaced with a fresh one containing 3.15 g/L glucose and 2% BCS, with or without GnRH analogs or mitoxantrone at a concentration of 1 μΜ, and the cells were further incubated at 37 °C and 5% CO2 for 2, 3 and 4 days. […]

human GnRH-R = target: T1, human GnRH-R (Homo sapiens, UniProt P30968); test: Calcium-based (fura-2) kinetic assay of GnRH-R agonism; type: cell-based; conditions: HEK293 cells transiently transfected with human GnRH-R; fura-2 ratio, 96-well, Flexstation 3; experiments performed a minimum of three times; read-out: EC50 for increase in intracellular [Ca2+]
T1 construct: host or cells: HEK293 (ATCC CRL-1573)
T1 sequence (P30968 1-328): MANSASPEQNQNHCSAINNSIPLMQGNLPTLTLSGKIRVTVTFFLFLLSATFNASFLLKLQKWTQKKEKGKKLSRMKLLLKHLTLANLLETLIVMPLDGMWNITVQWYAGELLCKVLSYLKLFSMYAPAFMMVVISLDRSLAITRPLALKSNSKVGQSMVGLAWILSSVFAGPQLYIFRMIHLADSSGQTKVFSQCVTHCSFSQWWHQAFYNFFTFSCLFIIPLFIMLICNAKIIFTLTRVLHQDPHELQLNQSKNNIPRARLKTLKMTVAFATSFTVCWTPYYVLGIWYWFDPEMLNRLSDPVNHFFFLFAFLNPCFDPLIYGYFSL
Procedure: For this purpose, fura-2-based kinetic assays to monitor the [Ca^2+] were performed in real-time using suspensions of HEK293 cells transiently transfected with the human GnRH-R (Figure 2A–I).
HEK293 cells transfected with the human GnRH-R served as a platform with which to test for agonist actions of individual test compounds. These cells were loaded with the ratiometric Ca^2+ indicator fura-2 so that the change in intracellular [Ca^2+] in response to agonist stimulation could be monitored in real time in a 96-well format. For these assays, the individual test compounds were administered at the 100 s time point.
Two days post-transfection, the HEK293 cells were harvested via trypsinization to obtain single-cell suspensions that were plated at 80% density on rat tail collagen-coated 96-well Costar 3904 plates for loading with the ratiometric Ca^2+ indicator fura-2. Measurements of the intracellular [Ca^2+] were performed using a Flexstation 3 microplate reader (Molecular Devices, Sunnyvale, CA, USA). Briefly, test solutions containing GnRH-R agonists were administered to individual wells of a 96-well plate using the automated pipetting feature of the Flexstation under computer control. […] Emitted light was detected at 505/15 nm, and the ratio of emission light intensity due to excitation at 335/9 and 375/9 nm was calculated. […]

## CCNC(=O)[C@@H]1CCCN1C(=O)[C@H](CCCNC(=N)N)NC(=O)[C@H](CC(C)C)NC(=O)[C@@H](CCCCN)NC(=O)[C@H](Cc1ccc(O)cc1)NC(=O)[C@H](CO)NC(=O)[C@H](Cc1c[nH]c2ccccc12)NC(=O)[C@H](Cc1c[nH]cn1)NC(=O)[C@@H]1CCC(=O)N1 [Con-P1]
SKOV-3 cells [1]
  effect on proliferation of SKOV-3 cells, in words: did not affect the proliferation of SKOV-3 cells
SKOV-3 cells [2]
  effect on viability of SKOV-3 cells, in words: did not affect the viability of SKOV-3 cells

## CCNC(=O)[C@@H]1CCCN1C(=O)[C@H](CCCNC(=N)N)NC(=O)[C@H](CC(C)C)NC(=O)[C@@H](CS)NC(=O)[C@H](Cc1ccc(O)cc1)NC(=O)[C@H](CO)NC(=O)[C@H](Cc1c[nH]c2ccccc12)NC(=O)[C@H](Cc1c[nH]cn1)NC(=O)[C@@H]1CCC(=O)N1 [Con-P2]
Human GnRH-R
  EC50: 670 pM

Reference: article PMC11397358, “Cytotoxic Activity of Novel GnRH Analogs Conjugated with Mitoxantrone in Ovarian Cancer Cells” (Molecules, 2024)
